Converted amounts (≈) assume the structure as drawn.
Experiments:
E. coli (AAC(3)IV) = test: MIC 50, broth micro-dilution, E. coli expressing AAC(3)IV; type: cell-based, Escherichia coli; details: Escherichia coli, ATCC25922, ATCC25922 harboring plasmid encoding AAC(3)IV
Method: (§1) Plasmid transformation. Approximately 500 ng of the pET-9b(+) (Cat. No. 69432-3, Merck), pAT21-1 (provided by Prof. Dr. Patrice Courvalin, M.D., Pasteur Institute, France; prepared according to Trieu-Cuot et. al, Mol. Gen. Genet. 198(2), 348 (1985)), pBluescript::AAC(6′)-Ie/APH(2″)-Ia (provided by Prof. Dr. Sergei Vakulenko, M.D., University of Notre Dame, Ind., USA; prepared according to S. B. Vakulenko et. al., J. Biol. Chem. 287 (52), 43262 (2012)), pBlue_lpp_aacC3_rrnC and pSET152 (Cat. No. PVT3395, Life Science Market; prepared according to Bierman et al., Gene 116 (1), 43 (1992)) plasmids, encoding APH(3′)-Ia (SEQ ID NO:2), APH(3′)-IIIa (SEQ ID NO:3), AAC(6′)Ie-APH(2″)-Ia (SEQ ID NO:4), AAC(3)-III (SEQ ID NO:1), and AAC(3)-IV (SEQ ID NO:5) respectively, were individually incubated in a vial of competent cells for 15 min on ice. The cells were subsequently heated to 42° C. for 90 s, and cooled on ice for 1 min. After addition of 900 μL LB, the cells were incubated for 1 h at 37° C. and 200 rpm. Cells were plated on LB-agar supplemented with 50 μg/mL KanaA and incubated for 18 h at 37° C. The next day, a single colony was inoculated in 5 mL LB supplemented with 50 μg/mL and grown for 18 h at 37° C. and 200 rpm. A 200 μL sample of each culture was diluted with 200 μL of 40% v/v glycerol in water, and stored at −80° C. The plasmid was purified from the remaining culture using the Plasmid Miniprep kit. Plasmid DNA was investigated by Eurofins Genomics (Germany) to confirm the identity of the aminoglycoside resistance genes.
(§2) 3.1 Against E. coli Strains
(§3) Tested reference compounds. Amikacin sulfate (Cat. No. 01693, Chem-Impex), Gentamicin sulfate (Cat. No. G4918, Sigma Aldrich).
(§4) Microbial strains. E. coli ATCC 25922, E. coli ATCC 25922/pET-9b(+), E. coli ATCC 25922/pAT21-1, E. coli ATCC 25922/pBluescript::AAC(6′)-Ie/APH(2″)-Ia, E. coli ATCC 25922/pBlue_lpp_aacC3_rrnC, E. coli ATCC 25922/pSET152.
(§5) Culture media and equipment. BBL™ Mueller Hinton Broth 2 (Lot. BCBW1143, Cat. No. 70192, Sigma); Kanamycin A (Cat. No. A1493, AppliChem); 96-well deep well plate, 1 mL (Cat. No. 0030506.200, Eppendorf); Plate lids (Cat. No. 0030131.525, Eppendorf); 96-well plate, F-bottom (Cat. No. 781602, Brand; Incubator, Infors Multitron Pro); Laminar flow (Heraeus KS12); UV/VIS meter (Eppendorf BioPhotometer Plus); Platereader (Tecan Sunrise).
(§6) Compound preparation. Compounds were prepared in MH2 media at a concentration of 5 mM and stored at 4° C. For testing, solutions of 128 μM were prepared in MH2. Out of these working solutions, 400 μL was transferred to wells in the first column of 96-well deep well plates. Each compound was transferred in triplicate. Plates were previously filled with 200 μL of MH2 media in all wells except for the wells in the first column. After compound and antibiotic addition, the compounds were serial two-fold diluted by transferring 200 μL from the first to the second column, then from the second to the third column and so on. Finally, 200 μL was removed from the last column.
(§7) Inoculum preparation. Microorganisms used were all revived from 20% glycerol (40% v/v glycerol in water was diluted with MH2) storage at −80° C. by inoculating them in 5 mL MH2. inoculums of E. coli containing a plasmid were selected for by adding 50 μg/mL KanaA. The Inoculums were grown to an optical density (measured by UV/Vis spectroscopy) of 0.6-0.8 at 600 nm. Out of these suspensions, actual inoculums were prepared by diluting them to an optical density (OD) of 0.1 in MH2 media. From these inoculums, 200 μL was transferred to each well, resulting in a final compound concentration range of 64 μM-31.3 nM. All plates were incubated at 900 rpm and 70% rH for 18 h at 37° C.
(§8) MIC determination. After 18 h of growth, 200 μL was transferred to a 96-well F-bottom plate. The optical density was determined by a plate reader at 600 nm, with 10 s shaking before reading. Triplicate measurements were averaged, and a growth curve was plotted in Microsoft Excel. […]

E. coli (APH(3′)IIIa) = test: MIC 50, broth micro-dilution, E. coli expressing APH(3′)IIIa; type: cell-based, Escherichia coli; details: Escherichia coli, ATCC25922, ATCC25922 harboring plasmid encoding APH(3′)IIIa
Method: as §1, §2, §3, §4, §5, §6, §7, §8

SMILES	MIC50 (E. coli (AAC(3)IV)) [µM]	MIC50 (E. coli (APH(3′)IIIa)) [µM]
N=C(NCCCO)NC1[C@@H](O)C(OC2[C@@H](F)[C@H](O[C@H]3OC(CN)[C@@H](O)CC3N)C(N)C[C@H]2NC(=O)[C@@H](O)CCN)O[C@H](CO)[C@H]1O (some centres unmarked) [ABX5041, Tobra-AHB-F-Gua 3-hydroxy-propyl]	2 (≈ 1.34 µg/mL)	0.5 (≈ 0.335 µg/mL)
N=C(NC[C@H]1CCNC1)NC1[C@@H](O)C(OC2[C@@H](F)[C@H](O[C@H]3OC(CN)[C@@H](O)CC3N)C(N)C[C@H]2NC(=O)[C@@H](O)CCN)O[C@H](CO)[C@H]1O (stereo partly drawn) [ABX5042, Tobra-AHB-F-Gua (S) pyrrolidine-3-ylmethyl]	1 (≈ 0.696 µg/mL)	0.25 (≈ 0.174 µg/mL)
N=C(NC[C@H]1CNCCO1)NC1[C@@H](O)C(OC2[C@@H](F)[C@H](O[C@H]3OC(CN)[C@@H](O)CC3N)C(N)C[C@H]2NC(=O)[C@@H](O)CCN)O[C@H](CO)[C@H]1O (stereo partly drawn) [ABX5043, Tobra-AHB-F-Gua (R) morpholin-2-yl methyl]	1 (≈ 0.712 µg/mL)	0.25 (≈ 0.178 µg/mL)
N=C(N)NC1[C@@H](O)C(OC2[C@@H](F)[C@H](O[C@H]3OC(CNCCO)[C@@H](O)CC3N)C(N)C[C@H]2NC(=O)[C@@H](O)CCN)O[C@H](CO)[C@H]1O (some centres unmarked) [ABX5045, 6N-2-hydroxy-ethyl-Tobra-AHB-F-Gua]	2 (≈ 1.31 µg/mL)	1 (≈ 0.657 µg/mL)
N=C(NCC1CCCO1)NC1[C@@H](O)C(OC2[C@@H](F)[C@H](O[C@H]3OC(CN)[C@@H](O)CC3N)C(N)C[C@H]2NC(=O)[C@@H](O)CCN)O[C@H](CO)[C@H]1O (some centres unmarked) [ABX5046, Tobra-AHB-F-Gua tetrahydrofuran-2-yl methyl]	1 to 2 (≈ 0.697 to 1.39 µg/mL)	0.5 (≈ 0.348 µg/mL)
C[C@@H](N)CCNC(=N)NC1[C@@H](O)C(OC2[C@@H](F)[C@H](O[C@H]3OC(CN)[C@@H](O)CC3N)C(N)C[C@H]2NC(=O)[C@@H](O)CCN)O[C@H](CO)[C@H]1O (stereo partly drawn) [ABX5047, Tobra-AHB-F-Gua (R) 3-amino-butyl]	1 to 2 (≈ 0.684 to 1.37 µg/mL)	0.25 (≈ 0.171 µg/mL)
N=C(NCc1ccncc1)NC1[C@@H](O)C(OC2[C@@H](F)[C@H](O[C@H]3OC(CN)[C@@H](O)CC3N)C(N)C[C@H]2NC(=O)[C@@H](O)CCN)O[C@H](CO)[C@H]1O (some centres unmarked) [ABX5048, Tobra-AHB-F-Gua pyridin-4-yl methyl]	1 to 2 (≈ 0.704 to 1.41 µg/mL)	0.25 (≈ 0.176 µg/mL)
N=C(NCc1cnc[nH]1)NC1[C@@H](O)C(OC2[C@@H](F)[C@H](O[C@H]3OC(CN)[C@@H](O)CC3N)C(N)C[C@H]2NC(=O)[C@@H](O)CCN)O[C@H](CO)[C@H]1O (some centres unmarked) [ABX5050, Tobra-AHB-F-Gua imidazol-5-yl methyl]	2 to 4 (≈ 1.39 to 2.77 µg/mL)	1 to 2 (≈ 0.693 to 1.39 µg/mL)
N=C(NCC1CCOC1)NC1[C@@H](O)C(OC2[C@@H](F)[C@H](O[C@H]3OC(CN)[C@@H](O)CC3N)C(N)C[C@H]2NC(=O)[C@@H](O)CCN)O[C@H](CO)[C@H]1O (some centres unmarked) [ABX5051, Tobra-AHB-F-Gua tetrahydrofuran-3-yl methyl]	2 (≈ 1.39 µg/mL)	0.5 (≈ 0.348 µg/mL)
NCC[C@H](O)C(=O)N[C@@H]1C[C@H](N)[C@@H](O[C@H]2O[C@H](CN)[C@@H](O)[C@H](O)[C@H]2O)[C@H](O)[C@H]1O[C@H]1O[C@H](CO)[C@@H](O)[C@H](N)[C@H]1O [Amikacin, amikacin, reference compound]	8 (≈ 4.68 µg/mL)	16 to 32 (≈ 9.37 to 18.7 µg/mL)
